Measured values from patent US20230111310A1, “CARBOXYLIC ACID DERIVATIVE-SUBSTITUTED IMINO ARYL COMPOUND, PREPARATION METHOD THEREFOR, HERBICIDAL COMPOSITION AND USE THEREOF” (Qingdao Kingagroot Chemical Compound Co., Ltd., priority 2020, published 2023).

Each compound was assayed on Eleusine indica (assay: Weeding effect in post-emergence stage). Conditions: Dose 15 g/ha; level of fresh weight growth control rate.
Type: in vivo
From the text: (§1) The activity level criteria for plant damage (i.e., growth control rate) are as follows:
(§2) Monocotyledonous and dicotyledonous weed seeds (Descurainia sophia, Capsella bursa-pastoris, Abutilon theophrasti, Galium aparine, Stellaria media, Lithospermum arvense, rorippa indica, Alopecurus aequalis, Alopecurus japonicus, Eleusine indica, Beckmannia syzigachne, Sclerochloa dura, Conyza Canadensis, Phleum paniculatum, Veronica didyma Tenore, Bromus japonicus, Aegilops tauschii, Phalaris arundinacea, Amaranthus retroflexus, Chenopodiaceae, Commelina communis, Sonchus arvensis, Convolvulus arvensis, Cirsium setosum, Bidens tripartita L., Solanum nigrum, Acalypha australis, Digitaria sanguinalis, Echinochloa crusgalli, Setaria viridis, Setaria glauca, Leptochloa chinensis, Monochoria vaginalis, Sagittaria trifolia, Scirpus juncoides, Cyperus rotundus, Cyperus iria, Cyperus difformis, Fimbristylis, Portulaca oleracea, Xanthium sibiricum, Pharbitis nil, etc.) and major crop seeds (wheat, corn, rice, soybean, cotton, oilseed rape, millet, sorghum, potato, sesame, ricinus, etc.) were placed in plastic pots filled with soil, then covered with 0.5-2 cm of soil, allowed to grow in a good greenhouse environment. After 2 weeks of sowing, the test plants were treated in the 2-3 leaf stage. The tested compounds of the present invention were respectively dissolved in acetone, then added with Tween 80 and 1.5 liter/ha of emulsifiable concentrate of methyl oleate as synergist, diluted with a certain amount of water to obtain a solution with a certain concentration, and sprayed with a spray tower onto the plants. After the application, the plants were cultured for 3 weeks in the greenhouse, and then the experimental results of the weeding were counted. […]

**Q.** How did the “Weeding effect in post-emergence stage, Eleusine indica” value (shortened to “Weeding effect … Eleusine indica”) turn out when `CCCCCOC(=O)C(C)O/N=C/c1cc(-n2c(=O)cc(C(F)(F)F)n(C)c2=O)c(F)cc1Cl` (racemic) [Compound 203] was run?
**A.** The value was 5 (Level 5: growth control rate is above 85%).

**Q.** `CCCCCCOC(=O)C(C)O/N=C/c1cc(-n2c(=O)cc(C(F)(F)F)n(C)c2=O)c(F)cc1Cl` (racemic) [Compound 204] was tested. Which “Weeding effect … Eleusine indica” value did it give?
**A.** The value was 5 (Level 5: growth control rate is above 85%).

**Q.** `CCCCCCCOC(=O)C(C)O/N=C/c1cc(-n2c(=O)cc(C(F)(F)F)n(C)c2=O)c(F)cc1Cl` (racemic) [Compound 205] was tested. Which “Weeding effect … Eleusine indica” value did it give?
**A.** Its value is 5 (Level 5: growth control rate is above 85%).

**Q.** For `CCCCCCCCOC(=O)C(C)O/N=C/c1cc(-n2c(=O)cc(C(F)(F)F)n(C)c2=O)c(F)cc1Cl` (racemic) [Compound 206], which “Weeding effect … Eleusine indica” value is on record?
**A.** The value was 5 (Level 5: growth control rate is above 85%).

**Q.** With `CCCCCCC(C)OC(=O)C(C)O/N=C/c1cc(-n2c(=O)cc(C(F)(F)F)n(C)c2=O)c(F)cc1Cl` (racemic) [Compound 207] as the compound, how does the “Weeding effect … Eleusine indica” value read?
**A.** Its value is 5 (Level 5: growth control rate is above 85%).

**Q.** With `C=CCOC(=O)C(C)O/N=C/c1cc(-n2c(=O)cc(C(F)(F)F)n(C)c2=O)c(F)cc1Cl` (racemic) [Compound 208] as the compound, how does the “Weeding effect … Eleusine indica” value read?
**A.** The value was 5 (Level 5: growth control rate is above 85%).

The compounds below were run on Abutilon theophrasti (assay: Weeding effect in post-emergence stage). Conditions: Dose 15 g/ha; level of fresh weight growth control rate.
Type: in vivo
From the text: as §1, §2

**Q.** For `CCCCCOC(=O)C(C)O/N=C/c1cc(-n2c(=O)cc(C(F)(F)F)n(C)c2=O)c(F)cc1Cl` (racemic) [Compound 203], which “Weeding effect in post-emergence stage, Abutilon theophrasti” value (“Weeding effect … Abutilon theophrasti” below) is on record?
**A.** Its value is 5 (Level 5: growth control rate is above 85%).

**Q.** How did the “Weeding effect … Abutilon theophrasti” value turn out when `CCCCCCOC(=O)C(C)O/N=C/c1cc(-n2c(=O)cc(C(F)(F)F)n(C)c2=O)c(F)cc1Cl` (racemic) [Compound 204] was run?
**A.** The value was 5 (Level 5: growth control rate is above 85%).

**Q.** How did the “Weeding effect … Abutilon theophrasti” value turn out when `CCCCCCCOC(=O)C(C)O/N=C/c1cc(-n2c(=O)cc(C(F)(F)F)n(C)c2=O)c(F)cc1Cl` (racemic) [Compound 205] was run?
**A.** Its value is 5 (Level 5: growth control rate is above 85%).

**Q.** `CCCCCCCCOC(=O)C(C)O/N=C/c1cc(-n2c(=O)cc(C(F)(F)F)n(C)c2=O)c(F)cc1Cl` (racemic) [Compound 206] was tested. Which “Weeding effect … Abutilon theophrasti” value did it give?
**A.** The value was 5 (Level 5: growth control rate is above 85%).

**Q.** For `CCCCCCC(C)OC(=O)C(C)O/N=C/c1cc(-n2c(=O)cc(C(F)(F)F)n(C)c2=O)c(F)cc1Cl` (racemic) [Compound 207], which “Weeding effect … Abutilon theophrasti” value is on record?
**A.** Its value is 5 (Level 5: growth control rate is above 85%).

**Q.** For `C=CCOC(=O)C(C)O/N=C/c1cc(-n2c(=O)cc(C(F)(F)F)n(C)c2=O)c(F)cc1Cl` (racemic) [Compound 208], which “Weeding effect … Abutilon theophrasti” value is on record?
**A.** The value was 5 (Level 5: growth control rate is above 85%).

What follows are compounds tested on Alopecurus japonicus (assay: Weeding effect in post-emergence stage). Conditions: Dose 15 g/ha; level of fresh weight growth control rate.
Type: in vivo
From the text: as §1, §2

**Q.** Which “Weeding effect in post-emergence stage, Alopecurus japonicus” value (shortened to “Weeding effect … Alopecurus japonicus”) does the source give for `CCCCCOC(=O)C(C)O/N=C/c1cc(-n2c(=O)cc(C(F)(F)F)n(C)c2=O)c(F)cc1Cl` (racemic) [Compound 203] here?
**A.** Its value is 5 (Level 5: growth control rate is above 85%).

**Q.** Which “Weeding effect … Alopecurus japonicus” value does the source give for `CCCCCCOC(=O)C(C)O/N=C/c1cc(-n2c(=O)cc(C(F)(F)F)n(C)c2=O)c(F)cc1Cl` (racemic) [Compound 204] here?
**A.** Its value is 5 (Level 5: growth control rate is above 85%).

**Q.** Which “Weeding effect … Alopecurus japonicus” value does the source give for `CCCCCCCOC(=O)C(C)O/N=C/c1cc(-n2c(=O)cc(C(F)(F)F)n(C)c2=O)c(F)cc1Cl` (racemic) [Compound 205] here?
**A.** Its value is 5 (Level 5: growth control rate is above 85%).

**Q.** With `CCCCCCCCOC(=O)C(C)O/N=C/c1cc(-n2c(=O)cc(C(F)(F)F)n(C)c2=O)c(F)cc1Cl` (racemic) [Compound 206] as the compound, how does the “Weeding effect … Alopecurus japonicus” value read?
**A.** Its value is 5 (Level 5: growth control rate is above 85%).

**Q.** For `CCCCCCC(C)OC(=O)C(C)O/N=C/c1cc(-n2c(=O)cc(C(F)(F)F)n(C)c2=O)c(F)cc1Cl` (racemic) [Compound 207], which “Weeding effect … Alopecurus japonicus” value is on record?
**A.** Its value is 5 (Level 5: growth control rate is above 85%).

**Q.** How did the “Weeding effect … Alopecurus japonicus” value turn out when `C=CCOC(=O)C(C)O/N=C/c1cc(-n2c(=O)cc(C(F)(F)F)n(C)c2=O)c(F)cc1Cl` (racemic) [Compound 208] was run?
**A.** The value was 5 (Level 5: growth control rate is above 85%).

These compounds were tested on Digitaria sanguinalis (assay: Weeding effect in post-emergence stage). Conditions: Dose 15 g/ha; level of fresh weight growth control rate.
Type: in vivo
From the text: as §1, §2

**Q.** For `CCCCCOC(=O)C(C)O/N=C/c1cc(-n2c(=O)cc(C(F)(F)F)n(C)c2=O)c(F)cc1Cl` (racemic) [Compound 203], which “Weeding effect in post-emergence stage, Digitaria sanguinalis” value (“Weeding effect … Digitaria sanguinalis” for short) is on record?
**A.** The value was 5 (Level 5: growth control rate is above 85%).

**Q.** For `CCCCCCOC(=O)C(C)O/N=C/c1cc(-n2c(=O)cc(C(F)(F)F)n(C)c2=O)c(F)cc1Cl` (racemic) [Compound 204], which “Weeding effect … Digitaria sanguinalis” value is on record?
**A.** Its value is 5 (Level 5: growth control rate is above 85%).

**Q.** With `CCCCCCCOC(=O)C(C)O/N=C/c1cc(-n2c(=O)cc(C(F)(F)F)n(C)c2=O)c(F)cc1Cl` (racemic) [Compound 205] as the compound, how does the “Weeding effect … Digitaria sanguinalis” value read?
**A.** Its value is 5 (Level 5: growth control rate is above 85%).

**Q.** For `CCCCCCCCOC(=O)C(C)O/N=C/c1cc(-n2c(=O)cc(C(F)(F)F)n(C)c2=O)c(F)cc1Cl` (racemic) [Compound 206], which “Weeding effect … Digitaria sanguinalis” value is on record?
**A.** Its value is 5 (Level 5: growth control rate is above 85%).

**Q.** `CCCCCCC(C)OC(=O)C(C)O/N=C/c1cc(-n2c(=O)cc(C(F)(F)F)n(C)c2=O)c(F)cc1Cl` (racemic) [Compound 207] was tested. Which “Weeding effect … Digitaria sanguinalis” value did it give?
**A.** The value was 5 (Level 5: growth control rate is above 85%).

**Q.** Which “Weeding effect … Digitaria sanguinalis” value does the source give for `C=CCOC(=O)C(C)O/N=C/c1cc(-n2c(=O)cc(C(F)(F)F)n(C)c2=O)c(F)cc1Cl` (racemic) [Compound 208] here?
**A.** The value was 5 (Level 5: growth control rate is above 85%).

What follows are compounds tested on Setaria viridis (assay: Weeding effect in post-emergence stage). Conditions: Dose 15 g/ha; level of fresh weight growth control rate.
Type: in vivo
From the text: as §1, §2

**Q.** For `CCCCCOC(=O)C(C)O/N=C/c1cc(-n2c(=O)cc(C(F)(F)F)n(C)c2=O)c(F)cc1Cl` (racemic) [Compound 203], which “Weeding effect in post-emergence stage, Setaria viridis” value (“Weeding effect … Setaria viridis” for short) is on record?
**A.** Its value is 5 (Level 5: growth control rate is above 85%).

**Q.** For `CCCCCCOC(=O)C(C)O/N=C/c1cc(-n2c(=O)cc(C(F)(F)F)n(C)c2=O)c(F)cc1Cl` (racemic) [Compound 204], which “Weeding effect … Setaria viridis” value is on record?
**A.** Its value is 5 (Level 5: growth control rate is above 85%).

**Q.** With `CCCCCCCOC(=O)C(C)O/N=C/c1cc(-n2c(=O)cc(C(F)(F)F)n(C)c2=O)c(F)cc1Cl` (racemic) [Compound 205] as the compound, how does the “Weeding effect … Setaria viridis” value read?
**A.** The value was 5 (Level 5: growth control rate is above 85%).

**Q.** For `CCCCCCCCOC(=O)C(C)O/N=C/c1cc(-n2c(=O)cc(C(F)(F)F)n(C)c2=O)c(F)cc1Cl` (racemic) [Compound 206], which “Weeding effect … Setaria viridis” value is on record?
**A.** Its value is 5 (Level 5: growth control rate is above 85%).

**Q.** Which “Weeding effect … Setaria viridis” value does the source give for `CCCCCCC(C)OC(=O)C(C)O/N=C/c1cc(-n2c(=O)cc(C(F)(F)F)n(C)c2=O)c(F)cc1Cl` (racemic) [Compound 207] here?
**A.** Its value is 5 (Level 5: growth control rate is above 85%).

**Q.** `C=CCOC(=O)C(C)O/N=C/c1cc(-n2c(=O)cc(C(F)(F)F)n(C)c2=O)c(F)cc1Cl` (racemic) [Compound 208] was tested. Which “Weeding effect … Setaria viridis” value did it give?
**A.** The value was 5 (Level 5: growth control rate is above 85%).

Each compound was assayed on Echinochloa crusgalli (assay: Weeding effect in post-emergence stage). Conditions: Dose 15 g/ha; level of fresh weight growth control rate.
Type: in vivo
In short: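 Weeds were treated post-emergence at 2-3 leaves with compound doses from 7.5 up to 500 g/ha, formulated in acetone–Tween 80 with methyl oleate synergist. Efficacy was assessed as growth control after 3 weeks.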

**Q.** Which “Weeding effect in post-emergence stage, Echinochloa crusgalli” value (shortened to “Weeding effect … Echinochloa crusgalli”) does the source give for `CCCCCOC(=O)C(C)O/N=C/c1cc(-n2c(=O)cc(C(F)(F)F)n(C)c2=O)c(F)cc1Cl` (racemic) [Compound 203] here?
**A.** Its value is 5 (Level 5: growth control rate is above 85%).

**Q.** `CCCCCCOC(=O)C(C)O/N=C/c1cc(-n2c(=O)cc(C(F)(F)F)n(C)c2=O)c(F)cc1Cl` (racemic) [Compound 204] was tested. Which “Weeding effect … Echinochloa crusgalli” value did it give?
**A.** Its value is 5 (Level 5: growth control rate is above 85%).

**Q.** How did the “Weeding effect … Echinochloa crusgalli” value turn out when `CCCCCCCOC(=O)C(C)O/N=C/c1cc(-n2c(=O)cc(C(F)(F)F)n(C)c2=O)c(F)cc1Cl` (racemic) [Compound 205] was run?
**A.** The value was 5 (Level 5: growth control rate is above 85%).

**Q.** `CCCCCCCCOC(=O)C(C)O/N=C/c1cc(-n2c(=O)cc(C(F)(F)F)n(C)c2=O)c(F)cc1Cl` (racemic) [Compound 206] was tested. Which “Weeding effect … Echinochloa crusgalli” value did it give?
**A.** The value was 5 (Level 5: growth control rate is above 85%).

**Q.** For `CCCCCCC(C)OC(=O)C(C)O/N=C/c1cc(-n2c(=O)cc(C(F)(F)F)n(C)c2=O)c(F)cc1Cl` (racemic) [Compound 207], which “Weeding effect … Echinochloa crusgalli” value is on record?
**A.** Its value is 5 (Level 5: growth control rate is above 85%).

**Q.** Which “Weeding effect … Echinochloa crusgalli” value does the source give for `C=CCOC(=O)C(C)O/N=C/c1cc(-n2c(=O)cc(C(F)(F)F)n(C)c2=O)c(F)cc1Cl` (racemic) [Compound 208] here?
**A.** Its value is 5 (Level 5: growth control rate is above 85%).
